Reference: US20060089499A1, “Pyrazolopyrimidines and the use thereof for controlling harmful organisms” (priority 2002, published 2006)

The compounds below were run on Pyricularia oryzae (assay: not given). Settings: rice, protective, application rate 500 g/ha, evaluation 6 days after inoculation.
Format: in vivo

| Structure (SMILES) | Efficacy in % [%] |
| --- | --- |
| C[C@H](Nc1c(-c2c(F)cc(F)cc2F)c(Cl)nc2c(Cl)cnn12)C(F)(F)F [drawing 140] | 88 |
| C[C@H](Nc1c(-c2c(F)cc(F)cc2F)c(Cl)nc2c(C#N)cnn12)C(F)(F)F [drawing 141] | 88 |
| N#Cc1cnn2c(NCC3CC3)c(-c3c(F)cc(F)cc3F)c(Cl)nc12 [drawing 142] | 86 |
| C[C@H](Nc1c(-c2ccccc2F)c(Cl)nc2c(C#N)cnn12)C(F)(F)F [drawing 143] | 75 |

Each compound was assayed on Fusarium nivale (var. majus) (assay: Fusarium nivale (var. majus) test (wheat)/protective). Settings: protective, application rate 500 g/ha, evaluation 6 days after inoculation.
Format: in vivo
Description: Fusarium nivale (var. majus) Test (Wheat)/Protective [table] To produce a suitable preparation of active compound, 1 part by weight of active compound is mixed with the stated amounts of solvent and emulsifier, and the concentrate is diluted with water to the desired concentration. To test for protective activity, young plants are sprayed with the preparation of active compound at the stated application rate. After the spray coating has dried on, the plants are sprayed with a conidia suspension of Fusarium nivale (var. majus). The plants are placed in a greenhouse under transparent incubation hoods at a temperature of about 15° C. and a relative atmospheric humidity of about 100%.

| Structure (SMILES) | Efficacy in % [%] |
| --- | --- |
| CC(Nc1c(-c2ccc(F)cc2Cl)c(Cl)nc2c(C#N)cnn12)C(F)(F)F (stereo not shown) [drawing 137] | 88 |
| C=C(C)CN(CC)c1c(-c2c(F)cc(F)cc2F)c(Cl)nc2c(C#N)cnn12 [drawing 138] | 100 |
| C[C@H](Nc1c(-c2c(F)cc(F)cc2F)c(Cl)nc2c(Cl)cnn12)C(F)(F)F [drawing 139] | 80 |

What follows are compounds tested on Alternaria solani (assay: Alternaria test (tomato)/protective). Settings: protective, application rate 750 g/ha, evaluation 7 days after inoculation.
Format: in vivo
Description: (Tomato)/Protective [table] To produce a suitable preparation of active compound, 1 part by weight of active compound is mixed with the stated amounts of solvent and emulsifier, and the concentrate is diluted with water to the desired concentration. To test for protective activity, young tomato plants are sprayed with the preparation of active compound at the stated application rate. 1 day after the treatment, the plants are inoculated with a spore suspension of Alternaria solani and then remain at 100% rel. humidity and 20° C. for 24 h. The plants then remain at 96% rel. atmospheric humidity and a temperature of 20° C.

| Structure (SMILES) | Efficacy in % [%] |
| --- | --- |
| N#Cc1cnn2c(N3CCOCC3)c(-c3c(F)cccc3Cl)c(Cl)nc12 [drawing 131] | 95 |
| N#Cc1cnn2c(N3CCCCC3)c(-c3c(F)cccc3Cl)c(Cl)nc12 [drawing 132] | 95 |
| CC(C)CNc1c(-c2ccc(F)cc2F)c(Cl)nc2c(C#N)cnn12 [drawing 133] | 95 |
| C=C(C)CN(CC)c1c(-c2c(F)cc(F)cc2F)c(Cl)nc2c(C#N)cnn12 [drawing 134] | 95 |
| C[C@H](Nc1c(-c2c(F)cc(F)cc2F)c(Cl)nc2c(C#N)cnn12)C(F)(F)F [drawing 135] | 95 |
| N#Cc1cnn2c(N3CCC(F)(F)CC3)c(-c3c(F)cc(F)cc3F)c(Cl)nc12 [drawing 136] | 90 |

Each compound was assayed on diamondback moth (Plutella xyostella) (assay: Plutella test (plant-damaging insects)). Settings: 1000 ppm active compound on synthetic feed, eggs/larvae.
Format: in vivo
Description: Plutella Test [table] To produce a suitable preparation of active compound, 1 part by weight of active compound is mixed with the stated amount of solvent, and the concentrate is diluted with methanol to the desired concentrations. A stated amount of preparation of active compound of the desired concentration is pipetted onto a standardized amount of synthetic feed. After the methanol has evaporated, about 200-300 eggs of the diamondback moth (Plutella xyostella) are placed onto the feed. After the desired period of time, the kill of the eggs or larvae in % is determined. 100% means that all animals have been killed; 0% means that none of the animals has been killed.

| Structure (SMILES) | Kill rate in % after 7^d [%] |
| --- | --- |
| CC(Nc1c(-c2ccc(F)cc2Cl)c(Cl)nc2c(C#N)cnn12)C(F)(F)F (stereo not shown) [drawing 144] | 100 |

What follows are compounds tested on Venturia inaequalis (assay: Venturia test (apple)/protective). Settings: topical, 240 h, protective, application rate 100 g/ha, evaluation 10 days after inoculation, read-out: Efficacy in %.
Format: in vivo
Description: Venturia Test (Apple)/Protective [table] To produce a suitable preparation of active compound, 1 part by weight of active compound is mixed with the stated amounts of solvent and emulsifier, and the concentrate is diluted with water to the desired concentration. To test for protective activity, young plants are sprayed with the preparation of active compound at the stated application rate. After the spray coating has dried on, the plants are inoculated with an aqueous conidia suspension of the apple scab pathogen Venturia inaequalis and then remain in an incubation cabin at about 20° C. and 100% relative atmospheric humidity for 1 day. The plants are then placed in a greenhouse at about 21° C. and a relative atmospheric humidity of about 90%.

| Structure (SMILES) | pest or weed control at 100 g/ha [%] |
| --- | --- |
| CC(Nc1c(-c2ccc(F)cc2Cl)c(Cl)nc2c(C#N)cnn12)C(F)(F)F (stereo not shown) [drawing 103] | 93 |
| C[C@H](Nc1c(-c2ccc(F)cc2Cl)c(Cl)nc2c(C#N)cnn12)C(F)(F)F [drawing 104] | 100 |
| CC(C)CN(C)c1c(-c2ccccc2Cl)c(Cl)nc2c(C#N)cnn12 [drawing 105] | 100 |
| CC1CCN(c2c(-c3ccccc3Cl)c(Cl)nc3c(C#N)cnn23)CC1 [drawing 106] | 99 |
| N#Cc1cnn2c(N3CCC(F)CC3)c(-c3c(F)cccc3Cl)c(Cl)nc12 [drawing 107] | 98 |
| CC(C)CN(C)c1c(-c2c(F)cccc2Cl)c(Cl)nc2c(C#N)cnn12 [drawing 108] | 99 |
| C=C(C)CN(CC)c1c(-c2c(F)cccc2Cl)c(Cl)nc2c(C#N)cnn12 [drawing 109] | 100 |
| C[C@H](Nc1c(-c2c(F)cccc2Cl)c(Cl)nc2c(C#N)cnn12)C(F)(F)F [drawing 110] | 100 |
